One series in a line: clinical. The class given is in vivo, human.
Series [1] in a line: Sorafenib and N-oxide metabolite plasma pharmacokinetics. The class given is in vivo, human.
For the next series, the system named is renal cancer. The note with it: no prior VEGF inhibitor therapy; cited from earlier work.
The next series concerns Hsp90. The series can be described thus: Western blot of PBMC lysates: Hsp90 levels. The class given is in vivo, human. The note with it: sorafenib therapy. (In general: A western blot detects proteins with antibodies after separation by electrophoresis.)
The conditions of series [2]: in vivo.
The mark [3] stands for this setting: Maximum, Day 1, in combination with tanespimycin.
Where [4] appears, read: Maximum, Day −1, sorafenib given alone.
The mark [5] stands for this setting: Mean, Day 1, in combination with tanespimycin, steady-state, eleven patients.
The mark [6] stands for this setting: Mean, Day −1, sorafenib given alone, steady-state, eleven patients.
The mark [7] stands for this setting: Minimum, Day 1, in combination with tanespimycin.
The mark [8] stands for this setting: Minimum, Day −1, sorafenib given alone.

Regarding `CO[C@H]1/C=C/C=C(\C)C(=O)NC2=CC(=O)C(N)=C(C[C@@H](C)C[C@H](OC)[C@H](O)[C@@H](C)/C=C(\C)[C@@H]1OC(N)=O)C2=O` [17-AG], the “Cmax on days 1 and 15 compared” value in the series “clinical” (concurrent sorafenib) is recorded as “similar”. The “Cmax (end of infusion) and AUC versus tanespimycin dose” value in “clinical” (in vivo, iv) is reported as “increased with increasing tanespimycin dose”.
As to `CNC(=O)c1cc(Oc2ccc(NC(=O)Nc3ccc(Cl)c(C(F)(F)F)c3)cc2)cc[n+]1[O-]` [N-oxide sorafenib], the AUClast in series [1] (setting [3]) came to 40.5 µM·h; in series [1] (setting [4]), 45.7 µM·h; in series [1] (setting [5]) it was 16.1 µM·h; in series [1] (setting [6]), 15.5 µM·h; in series [1] (setting [7]) it was 5.5 µM·h; in series [1] (setting [8]), 3.2 µM·h. Also, the Cmax was determined as 7.3 µM in series [1] (setting [3]); 6.4 µM in series [1] (setting [4]); 2.6 µM in series [1] (setting [5]); 2 µM in series [1] (setting [6]); 0.7 µM in series [1] (setting [7]); 0.5 µM in series [1] (setting [8]). Moreover, the Tmax in series [1] (setting [3]) was found to be 10.0 h; in series [1] (setting [4]) it was 10.0 h; in series [1] (setting [5]), 8.5 h; in series [1] (setting [8]) it was 1.0 h.
In the case of `CNC(=O)c1cc(Oc2ccc(NC(=O)Nc3ccc(Cl)c(C(F)(F)F)c3)cc2)ccn1` [sorafenib], the AUClast was 146.8 µM·h in series [1] (setting [3]), 181.2 µM·h in series [1] (setting [4]), 46.7 µM·h in series [1] (setting [7]) and 44.3 µM·h in series [1] (setting [8]). The maximum concentration (Cmax) in series [1] (setting [3]) was determined as 26.6 µM; in series [1] (setting [4]), 22.5 µM; in series [1] (setting [7]), 6.6 µM; in series [1] (setting [8]), 5.8 µM. In addition, the Tmax was 10.0 h in series [1] (setting [3]); 10.0 h in series [1] (setting [4]); 1.0 h in series [1] (setting [7]); 1.0 h in series [1] (setting [8]); 1 to 10 h in series [1] (human, plasma, po, 400 mg). Moreover, in series [1] (human, plasma, po), the AUC came out at 90.7 µM·h. Besides, the “mean steady-state trough levels” value in series [1] (plasma, sorafenib 400 mg twice daily) is reported as 8.0 µM. The “time of chronic treatment until plasma concentration reached the steady-state” value in series [1] (sorafenib 400 mg twice daily) was determined as 7 days. Further, the “effect of coadministration of 17-AAG on systemic exposure” value in series [1] (sorafenib 400 mg twice daily with 17-AAG) is “did not significantly alter”. The response rate with renal cancer was 10%. Besides, the “effect on Hsp90 levels” value in the series on Hsp90 is on record as “not affected”. Moreover, the “patients requiring dose modifications” value in series [2] (human) is 3 patients. In series [2] (human), the “patients with treatment interruptions” value worked out at 5 patients. The predominant toxicities attributed entry in series [2] is “hand-foot syndrome and diarrhea”.

As usually defined, the Cmax is the peak of the concentration-time curve. One may read the Tmax as the time from dosing to the highest level. The term AUC denotes the area under the concentration-time curve, a measure of exposure.

These data come from paper PMC2909581 (Clinical cancer research : an official journal of the …, 2010).
